Measured values published in US20260174875A1 (Novo Nordisk A/S, priority 2023, published 2026).
Like-named read-outs stand apart in the source and are kept apart here. Numbered stars: 1 amine (or outer) side, 2 acyl side, 3 side chain; on linkers, the order of the positions; unused ones are H or OH. Square brackets hold non-standard residues; d marks the D form. Side chains are listed from the residue outwards. * marks the point of attachment. C20 diacid = O=C(O)CCCCCCCCCCCCCCCCCCC(=O)*; C18 diacid = O=C(O)CCCCCCCCCCCCCCCCC(=O)*; C16 diacid = O=C(O)CCCCCCCCCCCCCCC(=O)*; γGlu = O=C(O)[C@H](CCC(=O)[*:2])N[*:1]; AEEA = NCCOCCOCC(=O)O; Aib = CC(C)(N)C(=O)O

Legend:
[1] = test system: Male Sprague Dawley (SD) rats; assay: Efficacy testing on appetite: acute food intake in ad libitum fed normal weight rats; format: in vivo, rat; details: for Food intake (relative to vehicle) Day 1: day 1 [0-24 hours]; for Food intake (relative to vehicle) Day 2: day 2 [24-48 hours]; for Food intake (relative to vehicle) Day 3: day 3 [48-72 hours]
From the text: Male Sprague Dawley (SD) rats from Taconic, Denmark were used for the acute food intake experiments, wherein the principles of laboratory animal care were followed.
The rats arrived at least 10-14 days before the start of the experiment to allow acclimatization to experimental settings. During this period, the animals were handled (fixation by restrain in neck skin) at least 2 times. Immediately upon arrival, rats were changed to a reversed light cycle (dark from 11 am-11 pm) and were transferred to an automated food intake measuring system (HM2 system, MBRose; Faaborg, Denmark). […] To enable recording of individual food intake, rats were ID chipped. Three rats were housed in each cage. During the acclimatization period, in which the rats get used to the new light cycle and diet (LF 10% (D12450B), from Research Diets Inc.), the animals had free access to food and water. Since rats are normally active and consume most of their daily calories during the dark period, rats were dosed in the morning right before lights were turned off. Such a set-up results in the lowest data variation and highest test sensitivity. […] In each cage there were animals from three different treatment groups (to eliminate potential cage effects (e.g. cage malfunction) on primary readout: food intake). The rats were dosed once subcutaneously (s.c.) with the peptide of interest according to body weight (10 or 30 nmol/kg) in vehicle (0.5 ml/kg) using a NovoPen® (Novo Nordisk, Bagsvæed, Denmark).
The compounds of the invention were formulated (20 or 60 nmol/ml) in the following vehicle: 8 mM phosphate; 250 mM glycerol; 0.007% polysorbate 20, pH 7.4.
After dosing, the rats were returned to their home cages, where they continued to have ad libitum access to chow and water. The food consumption was recorded individually and continuously by the HM2 system from 0-72 h after test compound administration. Data obtained by the HM-2 system were stored in a HMBase SQL database (Firebird® relational database management system) and were processed by HM2Lab software (MBRose; Faaborg, Denmark) installed in an embedded computer. The feeding system is a highly sensitive system with a load resolution of 0.001 g.

[2] = biological target: T1, human GLP-1 receptor (hGLP-1R) (Homo sapiens, UniProt P43220); assay: GLP-1 receptor assay, method A (CRE-luciferase reporter, BHK cells); format: cell-based
T1 construct: expressed in transfected cells
Outline: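 In this CRE-luciferase reporter assay, the human receptor was expressed in BHK cells, and cAMP signalling was followed after a 3 h stimulation at 37° C. The buffer contained 1% (w/v) ovalbumin, and testing was done with and without 1% (w/v) human serum albumin.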

[3] = hGLP-1R Potency, 1% HSA, EC50, method A, in the presence of 1% HSA
[4] = method A, absence of HSA, read-out: hGLP-1R Potency, no HSA, EC50

T1 sequence (P43220 24-463): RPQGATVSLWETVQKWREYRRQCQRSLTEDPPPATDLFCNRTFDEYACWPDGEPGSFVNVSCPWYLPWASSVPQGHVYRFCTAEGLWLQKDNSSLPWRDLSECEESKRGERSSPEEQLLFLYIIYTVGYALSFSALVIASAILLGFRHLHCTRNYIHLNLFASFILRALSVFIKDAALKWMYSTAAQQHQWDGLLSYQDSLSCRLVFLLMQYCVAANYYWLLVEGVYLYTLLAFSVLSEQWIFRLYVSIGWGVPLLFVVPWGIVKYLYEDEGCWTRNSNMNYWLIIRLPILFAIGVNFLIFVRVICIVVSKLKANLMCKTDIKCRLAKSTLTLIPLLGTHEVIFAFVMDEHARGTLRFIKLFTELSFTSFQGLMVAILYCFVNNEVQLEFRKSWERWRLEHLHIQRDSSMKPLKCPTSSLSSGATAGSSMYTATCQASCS

EC50 [2, 3]	EC50 [2, 4]	Substance	Food intake (relative to vehicle) Day 1 ([1]; single dose 10 nmol/kg)	Food intake (relative to vehicle) Day 2 ([1]; single dose 10 nmol/kg)	Food intake (relative to vehicle) Day 3 ([1]; single dose 10 nmol/kg)	Food intake (relative to vehicle) Day 1 ([1]; single dose 30 nmol/kg)	Food intake (relative to vehicle) Day 2 ([1]; single dose 30 nmol/kg)	Food intake (relative to vehicle) Day 3 ([1]; single dose 30 nmol/kg)	EC50 ([2]; hGLP-1R Potency, no HSA, EC50, method A, absence of HSA)
0.0663 nM	0.0162 nM	Y[Aib]EGTFTSDYSILLEEQAAREFIEWLLAGGPSSGEASHLSTAQTQRLSAELHK([AEEA-AEEA-γGlu-C18 diacid])LATLPRTETGSGSP-NH2 [Compound 50]	−54%	−60%	−21%	–	–	–	–
0.0362 nM	0.0167 nM	Y[Aib]EGTFTSDYSILLEEQAAREFIEWLLAGGPSSGALQAPGQAPLASHLSTAQTQRLSAELHK([AEEA-AEEA-γGlu-C20 diacid])LATLPRTETGSGSP-NH2 [Compound 99]	−69%	−84%	−46%	–	–	–	–
0.0178 nM	0.00403 nM	H[Aib]HGTFTSDYSILLEEQAAREFIEWLLAGGPSSGAGQAPGQAPGASHLSTAQTQRLSAK([AEEA-AEEA-γGlu-C18 diacid])LHRLATLPRTETGSGSP-NH2 [Compound 78]	−96%	−57%	−3%	–	–	–	–
0.0453 nM	0.023 nM	Y[Aib]EGTFTSDYSILLEEQAAREFIEWLLAGGPSSGAGQAPGQAPGASHLSTAQTQRLSAK([AEEA-AEEA-γGlu-C18 diacid])LHRLATLPRTETGSGSP-NH2 [compound 55]	–	–	–	–	–	–	–
0.0584 nM	0.0182 nM	Y[Aib]EGTFTSDYSILLEEQAAREFIEWLLAGGPSSGAGQAPGQAPGASHLSTAQTQRLSAELHRLK([AEEA-AEEA-γGlu-C18 diacid])TLPRTETGSGSP-NH2 [Compound 56]	−69%	−77%	−10%	–	–	–	–
–	–	Y[Aib]EGTFTSDYSILLEEQAAREFIEWLLAGGPSSGAGQAPGQAPGASHLSTAQTQRLSAELHK([AEEA-AEEA-γGlu-C20 diacid])LATLPRTETGSGSP-NH2 [Compound 115]	−44.5%	−76.5%	−38%	–	–	–	–
0.0242 nM	0.00345 nM	H[Aib]HGTFTSDYSILLEEQAAREFIEWLLAGGPSSGEASHLSTAQTQRLSAK([AEEA-AEEA-γGlu-C18 diacid])LHRLATLPRTETGSGSP-NH2 [Compound 82]	−94%	−73%	−27%	–	–	–	–
0.0678 nM	0.00371 nM	H[Aib]HGTFTSDYSILLEEQAAREFIEWLLAGGPSK([AEEA-AEEA-γGlu-C18 diacid])GEASQLSTAALGRLSAELHQLATLPRTETGSGSP-NH2 [Compound 64]	–	–	–	–	–	–	–
0.0174 nM	0.00379 nM	H[Aib]HGTFTSDYSILLEEQAAREFIEWLLAGGPSSGAGQAPGQAPGASHLSTAQTQRLSAELHRLK([AEEA-AEEA-γGlu-C18 diacid])TLPRTETGSGSP-NH2 [Compound 91]	−96%	−84%	−33%	–	–	–	–
0.238 nM	0.00274 nM	H[Aib]HGTFTSDYSILLEEQAAREFIEWLLAGGPSK([AEEA-AEEA-γGlu-C20 diacid])GAPPPSGGGEASELSTAALGRLSAELHELATLPRTETGSGSP-NH2 [Compound 16]	−17%	−11%	−10%	−39%	−22%	−17%	–
0.0204 nM	0.00345 nM	H[Aib]HGTFTSDYSILLEEQAAREFIEWLLAGGPSRGEASHLSTAQTQRLSAELHK([AEEA-AEEA-γGlu-C18 diacid])LATLPRTETGSGSP-NH2 [Compound 69]	−81%	−68%	−6%	–	–	–	–
0.204 nM	0.0104 nM	Y[Aib]EGTFTSDYSILLEEQAAREFIEWLLAGGPSK([AEEA-AEEA-γGlu-C16 diacid])GEASELSTAALGRLSAELHELATLPRTETGSGSP-NH2 [Compound 11]	–	–	–	−46%	−45%	−27%	–
0.0759 nM	0.00205 nM	H[Aib]HGTFTSDYSILLEEQAAREFIEWLLAGGPSK([AEEA-AEEA-γGlu-C18 diacid])GAPPPSGGGGASELSTAALGRLSAELHRLATLPRTETGSGSP-NH2 [Compound 14]	−78%	−85%	−32%	–	–	–	–
0.168 nM	0.0387 nM	Y[Aib]EGTFTSDYSILLEEQAAREFIEWLLAGGPSSGEASHLSTAQTQRLSAK([AEEA-AEEA-γGlu-C18 diacid])LHRLATLPRTETGSGSP-NH2 [Compound 79]	−70%	−54%	−5%	–	–	–	–
0.0295 nM	0.00386 nM	H[Aib]HGTFTSDYSILLEEQAAREFIEWLLAGGPSSGEASHLSTAALGRLSAELHRLK([AEEA-AEEA-γGlu-C18 diacid])TLPRTETGSGSP-NH2 [Compound 89]	−93%	−78%	−28%	–	–	–	–
0.0519 nM	0.0121 nM	Y[Aib]EGTFTSDYSILLEEQAAREFIEWLLAGGPSRGEASHLSTAQTQRLSAELHK([AEEA-AEEA-γGlu-C18 diacid])LATLPRTETGSGSP-NH2 [compound 68]	–	–	–	–	–	–	–
0.109 nM	0.0161 nM	Y[Aib]EGTFTSDYSILLEEQAAREFIEWLLAGGPSSGAGQAPGASHLSTAQTQRLSAELHK([AEEA-AEEA-γGlu-C18 diacid])LATLPRTETGSGSP-NH2 [Compound 97]	−65%	−82%	−42%	–	–	–	–
2.35 nM	0.012 nM	Y[Aib]EGTFTSDYSILLEEQAAREFIEWLLAGGPSK([AEEA-AEEA-γGlu-C18 diacid])GGQAPGQAPGEASHLSTAQTQRLSAELHELATLPRTETGSGSP-NH2 [Compound 38]	−3%	−19%	1%	–	–	–	–
0.0164 nM	0.00411 nM	H[Aib]HGTFTSDYSILLEEQAAREFIEWLLAGGPSSGAGQAPGQAPLASHLSTAQTQRLSAELHK([AEEA-AEEA-γGlu-C18 diacid])LATLPRTETGSGSP-NH2 [Compound 93]	−94%	−61%	−25%	–	–	–	–
0.179 nM	0.00324 nM	H[Aib]HGTFTSDYSILLEEQAAREFIEWLLAGGPSK([AEEA-AEEA-γGlu-C18 diacid])GAPPPSGGGEASHLSTAQTARLSAELHQLATLPRTETGSGSP-NH2 [compound 101]	–	–	–	–	–	–	–
–	0.0233 nM	Y[Aib]EGTFTSDYSILLEEQAAREFIEWLLAGGPSK([AEEA-AEEA-γGlu-C18 diacid])GEASHLSTAQTARLSAELHELATLPRTETGSGSP-NH2 [Compound 35]	–	–	–	−42%	−18%	−16%	–
0.0256 nM	0.0127 nM	Y[Aib]EGTFTSDYSILLEEQAAREFIEWLLAGGPSSGAGQAPGQAPLASHLSTAQTQRLSAELHK([AEEA-AEEA-γGlu-C18 diacid])LATLPRTETGSGSP-NH2 [compound 58]	–	–	–	–	–	–	–
0.0269 nM	0.011 nM	Y[Aib]EGTFTSDYSILLEEQAAREFIEWLLAGGPSSGAGQAPGQAPGASHLSTAQTQRLSAELHK([AEEA-AEEA-γGlu-C18 diacid])LATLPRTETGSGSP-NH2 [compound 52]	–	–	–	–	–	–	–

Substance	EC50 [2, 3]	EC50 [2, 4]	Food intake (relative to vehicle) Day 1 ([1]; single dose 10 nmol/kg)	Food intake (relative to vehicle) Day 2 ([1]; single dose 10 nmol/kg)	Food intake (relative to vehicle) Day 3 ([1]; single dose 10 nmol/kg)	Food intake (relative to vehicle) Day 1 ([1]; single dose 30 nmol/kg)	Food intake (relative to vehicle) Day 2 ([1]; single dose 30 nmol/kg)	Food intake (relative to vehicle) Day 3 ([1]; single dose 30 nmol/kg)	EC50 ([2]; hGLP-1R Potency, no HSA, EC50, method A, absence of HSA)
H[Aib]HGTFTSDYSILLEEQAAREFIEWLLAGGPSK([AEEA-AEEA-γGlu-C16 diacid])GAPPPSGGGEASHLSTAQTARLSAELHRLADLPRTETGSGSP-NH2 [Compound 61]	0.0147 nM	–	−86%	−92%	−34%	–	–	–	0.00279 nM
